Measurements as given in patent US20110064713A1 (priority 2009, published 2011).

Tested on: DU-145 cells
Format: cell-based, Human

With `C=C1[C@@H](C)[C@H]2[C@H](Cc3ccccc3)NC(=O)[C@]23[C@H](OC(C)=O)/C=C/[C@@](C)(O)C(=O)[C@@H](C)C/C=C/[C@H]3[C@@H]1O` [Cytochalasin-D] the “Relative Wound Density at 24 Hours, Mean” value was 3.3 ± 0.2, the “Relative Wound Density at 24 Hours, Percent Relative to Media” value was 4% and the “effect on cell migration” value was “did not migrate”.
